ChEMBL document CHEMBL5126678, “A New Naphthopyran Derivative Combines c-Myb Inhibition, Microtubule-Targeting Effects, and Antiangiogenic Properties” (ACS Med Chem Lett, 2022)
Activity calls are given as the source filed them. No cut-off for these calls is given here.

What was measured:
[1] = target: T1, Tubulin (Homo sapiens) (UniProt P68371+Q9H4B7+P0DPH7+P68366+Q13509+Q71U36+P04350+Q3ZCM7+P07437+P68363+Q9BQE3+Q6PEY2+Q13885+Q9BVA1+Q9BUF5); experiment: Induction of microtubule fragmentation in human 518A2 cells assessed as appearance of area with transverse arcs at 25 nM measured after 24 hrs by immunofluorescence assay; format: cell-based
[2] = target: T1, Tubulin (Homo sapiens); experiment: Induction of microtubule fragmentation in human 518A2 cells at 25 nM measured after 24 hrs by immunofluorescence assay; format: cell-based
[3] = tested on: HeLa; experiment: Cytotoxicity against human HeLa cells assessed as reduction in cell viability measured after 72 hrs by MTT assay; format: functional, cell-based
[4] = tested on: HCT-116; experiment: Cytotoxicity against p53-deficient human HCT-116 cells assessed as reduction in cell viability measured after 72 hrs by MTT assay; format: functional, cell-based; settings: HCT-116, 72 h
[5] = Cytotoxicity against human EA.hy 926 cells assessed as reduction in cell viability measured after 72 hrs by MTT assay; format: toxicity, cell-based
[6] = tested on: 518A2; experiment: Cell cycle arrest in human […] cells assessed as increase in accumulation at G2/M phase at 25 nM measured after 6 to 24 hrs by propidium iodide staining based FACS analysis; format: functional; settings: time 6-24 hrs
[7] = target: T1, Tubulin (Homo sapiens); experiment: Induction of microtubule fragmentation in human 518A2 cells assessed as appearance of area with dorsal stress fibre at 25 nM measured after 24 hrs by immunofluorescence assay; format: cell-based
[8] = tested on: HT-29; experiment: Cytotoxicity against human HT-29 cells assessed as reduction in cell viability measured after 72 hrs by MTT assay; format: functional, cell-based; settings: HT-29, 72 h
[9] = tested on: MCF7; experiment: Cytotoxicity against human MCF7 cells assessed as reduction in cell viability measured after 72 hrs by MTT assay; format: functional, cell-based; settings: MCF7, 72 h
[10] = tested on: 518A2; experiment: Cell cycle arrest in human […] cells assessed as increase in accumulation at sub-G1 phase at 25 nM measured after 6 to 24 hrs by propidium iodide staining based FACS analysis; format: functional; settings: time 6-24 hrs
[11] = tested on: 518A2; experiment: Cytotoxicity against human 518A2 cells assessed as reduction in cell viability measured after 72 hrs by MTT assay; format: functional, cell-based; settings: 518A2, 72 h
[12] = Cytotoxicity against HDFa cells assessed as reduction in cell viability at 0.0005 to 100 uM measured after 72 hrs by MTT assay; format: toxicity, cell-based; settings: human, dose 0.0005-100 µM
[13] = target: Caspase-3/Caspase-7 (Homo sapiens) (UniProt P42574+P55210); experiment: Activation of caspase-3/7 activity in human 518A2 cells at 25 nM preincubated for 24 hrs followed by caspase-3/7 fluorogenic substrate addition and measured after 60 mins by fluorescence assay; format: cell-based; settings: filed as activator, time 25.0 hrs
[14] = Effect on angiogenic activity in 24 hrs post-fertilized fil1/EGFP transgenic zebrafish embryo assessed as subintestinal vessel area at 100 nM measured after 48 hrs by fluorescence microscopy (reference value: 100%); format: toxicity, Danio rerio; settings: 0.1 µM
[15] = target: Transcriptional activator Myb (Homo sapiens, UniProt P10242); experiment: Inhibition of c-Myb (unknown origin) expressed in HEK293T cells measured after 16 hrs by steady-glo luciferase reporter gene assay; format: cell-based
[16] = tested on: KB-V1; experiment: Cytotoxicity against human multidrug-resistant KB-V1 cells assessed as reduction in cell viability measured after 72 hrs in presence of verapamil by MTT assay; format: functional, cell-based; settings: KB-V1, 72 h
[17] = tested on: HCT-116; experiment: Cytotoxicity against human HCT-116 cells assessed as reduction in cell viability measured after 72 hrs by MTT assay; format: functional, cell-based; settings: HCT-116, 72 h
[18] = tested on: KB-V1; experiment: Cytotoxicity against human multidrug-resistant KB-V1 cells assessed as reduction in cell viability measured after 72 hrs by MTT assay; format: functional, cell-based; settings: KB-V1, 72 h
[19] = organism: Sus scrofa; experiment: Inhibition of porcine brain tubulin polymerization at 5 uM measured at 10 mins interval for 100 mins by turbidimetric assay; format: tissue-based
[20] = Cytotoxicity against human U-87 cells assessed as reduction in cell viability measured after 72 hrs by MTT assay; format: functional, cell-based, U-87MG ATCC; settings: U-87 MG
[21] = Hydrolytic stability of compound in DMSO-d6/D2O measured after 7 days by 1H-NMR analysis; format: physicochemical; settings: 168 h; time 7 day
[22] = Stability of compound in human 518A2 cell lysate measured after 72 hrs by RP-HPLC analysis; format: ADME, subcellular; settings: 518a2, 72 h
[23] = Stability of compound in human 518A2 cell lysate at 100 uM measured after 24 hrs by UV-absorption spectra analysis; format: ADME, subcellular; settings: 518a2, 24 h
[24] = Effect on angiogenic activity in human EA.hy 926 cells assessed as reduction in vessel like 2D structure at 25 nM measured after 5 hrs by light microscopy; format: toxicity, cell-based; settings: ea.hy 926, 5 h, 0.025 µM
[25] = Drug uptake in cytoplasm of human 518A2 cells at 25 uM measured within 15 mins by confocal microscopy; format: ADME, subcellular; settings: 518a2, 0.25 h

Caspase-3/Caspase-7 (Homo sapiens), sequence (P42574 whole entry, looked up): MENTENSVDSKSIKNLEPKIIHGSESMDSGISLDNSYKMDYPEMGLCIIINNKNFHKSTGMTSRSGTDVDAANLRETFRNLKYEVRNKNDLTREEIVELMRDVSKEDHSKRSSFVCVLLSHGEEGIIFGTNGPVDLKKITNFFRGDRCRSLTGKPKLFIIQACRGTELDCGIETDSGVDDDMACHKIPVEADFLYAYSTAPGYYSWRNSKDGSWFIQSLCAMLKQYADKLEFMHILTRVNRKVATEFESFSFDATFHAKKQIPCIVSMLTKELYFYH
Caspase-3/Caspase-7 (Homo sapiens), sequence (P55210 whole entry, looked up): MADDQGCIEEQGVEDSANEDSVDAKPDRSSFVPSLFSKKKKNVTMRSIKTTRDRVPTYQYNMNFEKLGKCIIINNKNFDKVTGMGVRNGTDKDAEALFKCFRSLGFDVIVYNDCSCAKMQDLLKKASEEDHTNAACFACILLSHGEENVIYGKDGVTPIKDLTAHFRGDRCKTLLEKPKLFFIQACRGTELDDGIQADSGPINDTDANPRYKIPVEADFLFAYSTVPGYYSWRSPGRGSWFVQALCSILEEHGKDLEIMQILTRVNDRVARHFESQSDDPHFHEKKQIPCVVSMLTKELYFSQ
Transcriptional activator Myb, sequence (P10242 whole entry): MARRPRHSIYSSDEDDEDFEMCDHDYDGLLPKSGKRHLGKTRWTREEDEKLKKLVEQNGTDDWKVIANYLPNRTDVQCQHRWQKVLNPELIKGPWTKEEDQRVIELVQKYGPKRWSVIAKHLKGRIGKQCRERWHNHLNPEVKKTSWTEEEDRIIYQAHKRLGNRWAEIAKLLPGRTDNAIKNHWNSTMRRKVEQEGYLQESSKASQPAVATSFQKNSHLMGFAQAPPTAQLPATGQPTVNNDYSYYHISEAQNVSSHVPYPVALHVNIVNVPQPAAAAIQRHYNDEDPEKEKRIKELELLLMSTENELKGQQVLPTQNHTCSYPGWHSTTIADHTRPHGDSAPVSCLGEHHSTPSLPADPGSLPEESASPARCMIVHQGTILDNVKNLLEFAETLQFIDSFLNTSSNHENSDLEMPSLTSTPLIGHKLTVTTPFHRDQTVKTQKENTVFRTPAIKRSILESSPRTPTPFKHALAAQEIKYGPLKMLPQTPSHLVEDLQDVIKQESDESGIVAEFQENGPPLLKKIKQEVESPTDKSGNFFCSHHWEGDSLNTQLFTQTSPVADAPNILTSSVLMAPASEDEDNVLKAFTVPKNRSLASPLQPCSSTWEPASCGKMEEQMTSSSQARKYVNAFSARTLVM

SMILES | IC50 [3] | IC50 [4] | IC50 at 72 h [5] | IC50 [8] | IC50 [9] | IC50 [11] | Activity [14] | IC50 [15] | IC50 [16] | IC50 [17] | IC50 [18] | IC50 [20] | other results
C=CCOc1c(OC)cc(C2C(C#N)=C(N)Oc3c2ccc2ccccc32)cc1OC (centres undefined) | 22.2 nM | 15.9 nM | 15.7 nM | 395 nM | 43.3 nM | 3.6 nM | 31.3% | 14 nM | 15.9 nM | 193 nM | 18.7 nM | 5.7 nM | Activity [1]: Active; Activity [2]: Active; Activity [6]: Active; Activity [7]: Active; Activity [10]: Active; Activity [12]: Toxic; Activity [13]: Active; inhibition [19]: Active
CNC(=O)c1ccccc1Sc1ccc2c(/C=C/c3ccccn3)n[nH]c2c1 [AXITINIB] | – | – | – | – | – | – | 19.6% | – | – | – | – | – | –
C#CCOc1c(OC)cc(C2C(C#N)=C(N)Oc3c2ccc2ccccc32)cc1OC (centres undefined) | 24 nM | 19.9 nM | 17.1 nM | 36.9 nM | 2.6 nM | 20.6 nM | 34.5% | 11 nM | 10.6 nM | 75.2 nM | 60.6 nM | 5.2 nM | Stability [21]: Stable; Activity [1]: Active; Activity [2]: Active; Stability [22]: Stable; Activity [6]: Active; Activity [7]: Active; Stability [23]: Stable; Activity [10]: Active; Activity [24]: Toxic; Activity [12]: Toxic; Activity [13]: Active; Drug uptake [25]: Active; inhibition [19]: Active
COc1cc(C2C(C#N)=C(N)Oc3c2ccc2ccccc32)ccc1OCc1ccccc1 (centres undefined) | – | – | – | – | – | – | – | 1000 nM | – | – | – | – | –
COc1ccc(C2C(C#N)=C(N)Oc3c2ccc2ccccc32)cc1C (centres undefined) | – | – | – | – | – | – | – | 400 nM | – | – | – | – | –
COc1cc(C2C(C#N)=C(N)Oc3c2ccc2ccccc32)cc(OC)c1OC(C)C (centres undefined) | 72 nM | 137 nM | 65.8 nM | 4310 nM | 265 nM | 266 nM | 80.9% | 60 nM | 105 nM | 274 nM | 89 nM | 53.1 nM | Activity [6]: Active; Activity [10]: Active; Activity [12]: Toxic; Activity [13]: Active; inhibition [19]: Active
CCCOc1c(OC)cc(C2C(C#N)=C(N)Oc3c2ccc2ccccc32)cc1OC (centres undefined) | 33.1 nM | 33.1 nM | 11.9 nM | 284 nM | 21.4 nM | 26.1 nM | 74.5% | 30 nM | 16.3 nM | 68.5 nM | 23.1 nM | 27.4 nM | Activity [1]: Active; Activity [2]: Active; Activity [6]: Active; Activity [7]: Active; Activity [10]: Active; Activity [24]: Toxic; Activity [12]: Toxic; Activity [13]: Active; inhibition [19]: Active
CSc1ccc(C2C(C#N)=C(N)Oc3c2ccc2ccccc32)cc1 (centres undefined) | – | – | – | – | – | – | – | 210 nM | – | – | – | – | –
N#CC1=C(N)Oc2c(ccc3ccccc23)C1c1cccc([N+](=O)[O-])c1 (centres undefined) | 36.1 nM | 28.2 nM | 29.5 nM | 32.1 nM | 182 nM | 10.8 nM | – | 8.7 nM | 76.1 nM | 7.57 nM | 23.7 nM | 67.7 nM | Stability [21]: Stable
COc1ccc(C2C(C#N)=C(N)Oc3c2ccc2ccccc32)cc1 (centres undefined) | – | – | – | – | – | – | – | 3700 nM | – | – | – | – | –
N#CC1=C(N)Oc2c(ccc3ccccc23)C1c1cc(F)c(F)c(F)c1 (centres undefined) | – | – | – | – | – | – | – | 70 nM | – | – | – | – | –
Cc1ccc(C2C(C#N)=C(N)Oc3c2ccc2ccccc32)cc1 (centres undefined) | – | – | – | – | – | – | – | 430 nM | – | – | – | – | –
CCCCCOc1c(OC)cc(C2C(C#N)=C(N)Oc3c2ccc2ccccc32)cc1OC (centres undefined) | – | – | – | – | – | – | – | 400 nM | – | – | – | – | –
N#CC1=C(N)Oc2c(ccc3ccccc23)C1c1ccc(C#N)cc1 (centres undefined) | – | – | – | – | – | – | – | 390 nM | – | – | – | – | –
